Experimental data published in patent US20220387339A1, “SUPERFINE COMPOUNDS AND PRODUCTION THEREOF” (Esolate Ltd, priority 2019, published 2022).
≈ marks a conversion by molar mass, not a printed value.

Key:
[1] = Solubility of cyclodextrins in supercritical CO2 under process conditions (Example 3); conditions: for solubility in supercritical CO2: experimental conditions: 40° C., 3,500 psi
[2] = Visual solubility in water before and after processing (FIGS. 3-4); type: physicochemical; conditions: FIGS. 3 and 4
Description: The crystals are insoluble in acid and in water.

[3] = Visual solubility in simulated stomach conditions (Example 5); type: physicochemical
Procedure: Bioavailability of the cannabinoid ultrafine nanoparticles obtained as described in Example 4 was assessed by visually evaluating the solubility of the fine nanoparticles in simulated stomach conditions. 0.5 g of NaCl was added to a 0.155 M solution of HCl in water to replicate stomach acidic conditions. 10 mg of the fine nanoparticles, 10 mg of the isolates in crystalline form, and 10 mg of the distillates were each placed in vials containing 10 ml of the acidic solution and incubated for 10 hours at 37° C. At the end of the 10-hour period, only minimal solubility of the preparations was observed. Additional 10 ml of the acidic solution were added, and the mixtures were incubated for 10 more hours at 37° C. At the end of the 20-hour period, the cannabinoid nanoparticles dissolved in the acidic solution.

[4] = Relative bioavailability test: CBD concentration in water by HPLC-UV (Example 6); type: physicochemical; conditions: after 32 hours elapsed time, 0.45 μm filtered
Procedure: Relative bioavailability tests of the cannabinoid ultrafine nanoparticles obtained as described in Example 4 (test samples) as compared to cannabinoid isolates in water (control samples) were performed using a high performance liquid chromatography (HPLC) separator equipped with a UV detector to determine the concentration of CBD in each sample. Control samples were prepared by filtering 1 ml of each sample through a 0.45 μm filter into a 2 ml HPLC vial and 1 ml of methanol (MeOH) was added to each sample vial. HPLC mobile phase was comprised of 65% acetonitrile and 35% water. A flow rate of 1 ml per minute led to the elution of CBD after approximately 4.5 minutes.
A percentage area was measured after 32 hours elapsed time, which represents the amount of CBD in each sample relative to the background signal created by the MeOH in each sample.

[5] = isolates currently available; cited from earlier work

CC(=O)OC[C@H]1O[C@@H]2O[C@H]3[C@H](OC(C)=O)[C@@H](OC(C)=O)[C@@H](O[C@H]4[C@H](OC(C)=O)[C@@H](OC(C)=O)[C@@H](O[C@H]5[C@H](OC(C)=O)[C@@H](OC(C)=O)[C@@H](O[C@H]6[C@H](OC(C)=O)[C@@H](OC(C)=O)[C@@H](O[C@H]7[C@H](OC(C)=O)[C@@H](OC(C)=O)[C@@H](O[C@H]8[C@H](OC(C)=O)[C@@H](OC(C)=O)[C@@H](O[C@H]1[C@H](OC(C)=O)[C@H]2OC(C)=O)O[C@@H]8COC(C)=O)O[C@@H]7COC(C)=O)O[C@@H]6COC(C)=O)O[C@@H]5COC(C)=O)O[C@@H]4COC(C)=O)O[C@@H]3COC(C)=O [ABCD, β-cyclodextrin heneicosaacetate]
solubility in supercritical CO2 [1]: 1.3 wt. %

C=C(C)[C@@H]1CCC(C)=C[C@H]1c1c(O)cc(CCCCC)cc1O [CBD isolate, cannabidiol]
solubility in water (visual) [2]: insoluble | solubility in acidic solution after 20 hours (visual) ([3]; 10 mg in 20 ml 0.155 M HCl with NaCl, 37° C., 20 hours): complete insolubility | solubility in acid (visual) ([3]; acidic solvent resembling stomach conditions, FIGS. 3 and 5): insoluble | percentage area (amount of CBD relative to MeOH background signal) [4]: 0.7706% | solubility in water [5]: 12.6 µg/mL (≈ 40.1 µM)

Cyclodextrin
solubility under the process conditions (supercritical CO2) ([1]; 40° C., 3,500 psi): insoluble

α-cyclodextrin exadeacetate [AACD]
solubility in supercritical CO2 [1]: 1.1 wt. %
